Consider eight molecules from EP4029501A1, “COMBINATION OF POLYAROMATIC UREA DERIVATIVES AND GLUCOCORTICOID OR HDAC INHIBITOR FOR THE TREATMENT OF DISEASES OR CONDITIONS ASSOCIATED WITH MUSCLE CELLS AND/OR SATELLITE CELLS” (Anagenesis Biotechnologies, priority 2021, dated 2022).

Where two headings read alike, the source gives them in different places.

Type in all cases: cell-based, human
Assay [1] concerns muscle progenitors derived from DMD hiPSC. Kind of assay: Myotube assay: total myotube area per well (alpha-actinin staining). Conditions: for Emax / EC50: Homo sapiens, Myotube. The procedure, abridged:
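DMD hiPSC-derived muscle progenitors (NCRM-1 background) plated at 3500 cells/well in K5 medium with 5 µM Y-27632, then exposed to compound at 1.5 nM–30 µM for 3 days at 37°C. Cells fixed on day 7, alpha-actinin-immunostained and total myotube area per well quantified; duplicates averaged, EC50 and normalized myotube area derived.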

Assay [2] shares this test system. Kind of assay: Dose response assay of combination treatments with Givinostat or Prednisolone: total myotube area. Conditions: for improvement of potency: versus alone; for EC50: Homo sapiens, Myotube, compound alone, DRC 4.5 nM to 10 µM, DMD hMPs (figure 6), read-out: potency (EC50) on myotube surface; for potency: change in words. From the text:
(§1) • Figure 1 - the workflow of the myotube assay, aiming at monitoring myogenic activity of compounds and effect on satellite-like cells. • Figure 2 - the myogenic activity of compound (i) in a dose-response assay, as shown by an increase of the total myotube surface/well upon increase of compound concentration. • Figure 3 - the positive effect on satellite-like cells of compound (i) in a dose-response assay, as shown by the increase of Pax7-positive cell percentage upon increase of compound concentration. • Figure 4 - representative images for the dose-response of the total myotube area readout for compound (i), corresponding to Figure 2. • Figure 5 - representative images for the dose-response of the percentage of Pax7-positive cell readout for compound (i), corresponding to Figure 3. • Figure 6 - Dose-response curve on muscle progenitors derived from DMD hiPSC. Treatment of muscle progenitors derived from DMD hiPSC with Prednisolone or Givinostat alone inducing a beneficial effect on α-actinin expression (representative of the myotube surface) and a loss of nearly 50 % of Pax7 positive cells (representative of the population of satellite cells) in a dose-dependent manner. The highest concentration represented is 10 µM. The arrows show the point a 0.3 µM. Efficacy values correspond to the highest score of normalized myotube surface (y-axis). Activity values correspond to the half maximal effective concentration (EC50; x-axis). The curve fits were calculated using a 4-parameter logistic regression model (Graphpad PRISM software). Error bars show standard deviation (SD). The picture on the right panel is representative of the highest myotube surface value of the dose-response curve. • Figures 7-9 - Dose-response curve on muscle progenitors derived from DMD hiPSC. Treatment in a dose-dependent manner of muscle progenitors derived from DMD hiPSC with indicated compound alone or with combination with Prednisolone or Givinostat at 0.3 µM. The combination induced an improvement of myogenic capabilities seen with α-actinin expression (representative of the myotube surface) and harbor no worsening of the Pax7 positive cells (representative of the population of satellite cells) compared to Prednisolone or Givinostat alone. The highest concentration of DRC is 10 µM.
Efficacy values correspond to the highest score of normalized myotube surface (y-axis). Activity values correspond to the half maximal effective concentration (EC50; x-axis). The curve fits were calculated using a 4-parameter logistic regression model (Graphpad PRISM software). Error bars show standard deviation (SD). The picture on the right panel is representative of the highest myotube surface value of the dose-response curve.
(§2) Figure 1 provides an example of a Myotube assay workflow. At day 0, hMP are thawed and 3.1 million cells are plated into a T75-flask coated with hESC-qualified Matrigel™ (Corning) in SkGM proliferating medium (PromoCells), supplemented with 5 µM Y-27632 (Tocris Bioscience). On day 2, SkGM proliferating medium is refreshed. On day 4, hMP are harvested and transferred into a 384-well plate coated with collagen type I at a density of 3500 cells/well in a DMEM-based medium, containing 5% of knockout serum replacement (Gibco), 1% PenStrep (Gibco), 1% MEM NEAA (Gibco) and 0.1 mM 2-mercaptoethanol (Gibco) (hereafter "K5 medium") and 5 µM Y-27632. Compounds to be tested are then added in the medium and incubated for 3 days at 37°C. On day 7, cells are fixed and immunostained. For example, myotubes (alpha-actinin staining) and satellite-like (Pax7 staining) cells can be analyzed for total myotube area per well or Pax7-positive cell quantification.
DMD hMPs were put in the Myotube assay according to the workflow described in example 2.1. […]

Another assay relates to Pax7 positive cells. Kind of assay: Dose response assay of combination treatments with Givinostat or Prednisolone: percentage of Pax7-positive cells. The conditions noted are these: for drop of satellite cells content: compound alone at 0.3 µM, DMD hMPs (figure 6); for loss of Pax7 positive cells: dose-dependent, highest concentration 10 µM (Figure 6 legend).
Text: as §1, §2
DMD hMPs were put in the Myotube assay according to the workflow described in example 2.1. In particular, Prednisolone (Sigma) or Givinostat (Exclusive Chemistry) were added in all conditions at a fixed concentration equal to 0.3 µM in combination with compounds az or bw or q tested in DRC at 8 concentrations ranging from 4.5 nM to 10 µM, starting from day 4. Also, as control, DRCs with the same range of concentrations were done with Prednisolone alone, Givinostat (figure 6) alone or compounds az or bw or q alone (figures 7 to 9). […]

For another assay, the system named is Pax7-positive cells. Kind of assay: Myotube assay: Pax7-positive (satellite-like) cell quantification. Also on record: key to Pax7: (-) : Depletes the pool of cells, while positively affects the myotubes; (+) : Maintains or increases the pool of cells, with at least 1 of the highest concentration known to be cytotoxic; (++) Maintains or increases the pool of cells, without any toxicity. Conditions: for Pax7: comparative compounds, effect on pool of Pax7-positive cells.
Text: The efficacy of said compound for use in treating, ameliorating, delaying, curing and/or preventing a disease or condition associated with muscle cells and/or satellite cells is positively correlated with the generation of myotubes (i.e. the increase of the area occupied by myotubes on the assay) and/or satellite cells (i.e. the increase of the number of satellite cells) in the assay after adding said compound. The generation of myotubes by the addition of said compound is expressed as the EC50 value, the concentration of said compound that corresponds with the half-maximal generation of myotubes, and the MA (normalized myotube area) value, the normalized area occupied by generated myotubes on the assay. […] Since muscle cells are formed from myotubes during myogenesis, the generation of myotubes in the assay is a good indicator of the ability of said compound to induce the formation of functional muscle cells in vivo. The number of satellite cells is measured as the percentage of Pax7 positive cells, relative to the total number of cells in the assay, as shown in Figure 3. The percentage of Pax7 is a good indicator of the ability of said compound to induce the formation of satellite cells which are able to play a role in muscle repair and regeneration in vivo.
DMD human induced pluripotent stem cells (hereafter "DMD hiPSC"), generated from the NCRM-1 hiPSC WT cell line by gene editing, or WT human induced pluripotent stem cells (hereafter "WT hiPSC"), being NCRM-1 hiPSC wt cell line, have been differentiated according to Chal et al. 2015, 2016, to produce muscle progenitors (hereafter "hMP"). The hMP population contains satellite-like cells (i.e Pax7-positive cells) and satellite cells' progenies (i.e. Myogenin-positive cells).
as §2
DMD hMP were put in the Myotube assay according to the workflow described in Example 2.1. In particular, compound (i) was added at concentrations ranging from 1.5 nM to 30 µM, starting from day 4. hMP were cultivated for three more days in presence of compound (i), then fixed and analyzed for percentage of Pax7-positive cells and nuclei number. Duplicates of each condition were averaged.
(-) : Depletes the pool of cells, while positively affects the myotubes; (+) : Maintains or increases the pool of cells, with at least 1 of the highest concentration known to be cytotoxic; and (++) Maintains or increases the pool of cells, without any toxicity.

Where [3] appears, read: 72 h, efficacy, MA = normalized Myotube Area, 3 days incubation, DMD or WT cell source not given.
[4] abbreviates: 72 h, myogenic activity, half-maximal generation of myotubes, 10 points dose-response 1.5 nM to 30 µM, 3 days, DMD or WT cell source not given.
Setting [5] is: DRC 4.5 nM to 10 µM in combination with Givinostat at 0.3 µM.
[6] abbreviates: DRC 4.5 nM to 10 µM in combination with Prednisolone at 0.3 µM.
Setting [7] is: in combination with Givinostat at 0.3 µM.
[8] abbreviates: in combination with Prednisolone at 0.3 µM.
The mark [9] stands for this setting: comparative compounds, same assay as Table 3, NA: non active.

The term EC50 denotes the concentration giving half of the maximal effect. Turning to `Cc1ccc(-n2nc(C(C)(C)C)cc2NC(=O)Nc2ccc(Oc3ccnc4[nH]c(=O)cnc34)cc2C(F)(F)F)cc1` [(az), 1-(3-(tert-butyl)-1-(p-tolyl)-1H-pyrazol-5-yl)-3-(4-((3-oxo-3,4-dihydropyrido[2,3-b]pyrazin-8-yl)oxy)-2-(trifluoromethyl)phenyl)urea], in assay [1] (setting [3]), the Emax was ≥ 75%. Besides, the EC50 in assay [1] (setting [4]) lay in the range of 500 to 1000 nM. Besides, the total myotube surface result in assay [2] (setting [5]) and in assay [2] (setting [6]) was “increased the total myotube surface” throughout. The improvement of potency result in assay [2] (setting [7]) and in assay [2] (setting [8]) was “two fold” in each case. In addition, the satellite cell population entry in the assay on Pax7 positive cells (setting [7]) was “at least maintained”. Also, in the assay with Pax7 positive cells (setting [8]), the “satellite cell population increase” value was determined as 1.5 fold.

For the molecule `CC(C)n1nc(C(C)(C)C)cc1NC(=O)Nc1ccc(Oc2ccnc3[nH]c(=O)cnc23)cc1F` [(i), 1-(3-(tert-butyl)-1-isopropyl-1H-pyrazol-5-yl)-3-(2-fluoro-4-((3-oxo-3,4-dihydropyrido[2,3-b]pyrazin-8-yl)oxy)phenyl)urea], in assay [1] (DMD hMP, 10 increasing concentrations 1.5 nM to 30 µM, 3 days (figure 2)), the myotube surface result was “dose-dependent increase of myotube surface”. In assay [1] (setting [3]), the Emax fell in the range of 50 to 75%. In assay [1] (setting [4]), this molecule showed an EC50 of 1000 to 5000 nM. Moreover, the “percentage of Pax7-positive cells” value in the assay on Pax7-positive cells (DMD hMP, 10 increasing concentrations 1.5 nM to 30 µM, 3 days (figure 3)) was “dose-dependent increase percentage of Pax7-positive cells”.

`CCN(CC)Cc1ccc2cc(COC(=O)Nc3ccc(C(=O)NO)cc3)ccc2c1` [Givinostat, reference compound]: the EC50 in assay [2] was ≤ 170 nM. In the assay on Pax7 positive cells, the “drop of satellite cells content” value is on record as “about 50%”. Also, the “loss of Pax7 positive cells” value in the assay on Pax7 positive cells (compound alone) was ~50%.

Turning to `Cc1ccc(-n2nc(C(C)(C)C)cc2NC(=O)Nc2ccc(OCCN3CCOCC3)c3ccccc23)cc1` [BIRB-796], the Emax in assay [1] (72 h, comparative compounds, same assay as Table 3, NA: non active, read-out: MA) was ≥ 75%. In addition, the EC50 in assay [1] (setting [9]) is ≥ 5000 nM. In addition, the Pax7 entry in the assay on Pax7-positive cells is “++”.

For the molecule `CC(C)(C)c1cc(NC(=O)Nc2ccc(Oc3ccnc4[nH]c(=O)cnc34)cc2F)n(-c2ccccc2)n1` [CCT196969, reference compound], in assay [1] (setting [9]), the EC50 lay in the range of 500 to 1000 nM and the MA result is on record as “++ (++: 50% ≤ MA <75%)”. Also, in the assay with Pax7-positive cells, the Pax7 result is reported as “+”.

`CSc1cc(Oc2ccnc3[nH]c(=O)cnc23)ccc1NC(=O)Nc1cc(C(C)(C)C)nn1-c1cccc(F)c1` [(bw), 1-(3-(tert-butyl)-1-(3-fluorophenyl)-1H-pyrazol-5-yl)-3-(2-(methylthio)-4-((3-oxo-3,4-dihydropyrido[2,3-b]pyrazin-8-yl)oxy)phenyl)urea]: in assay [1] (setting [3]), the Emax was ≥ 75%. Moreover, the EC50 in assay [1] (setting [4]) was < 500 nM. For the same molecule, the total myotube surface result in assay [2] (setting [5]) and in assay [2] (setting [6]) was “increased the total myotube surface” each time. In addition, the potency result in assay [2] (setting [7]) is “improved”; in assay [2] (setting [8]) it was “slightly decreased”. The satellite cell pool result with Pax7 positive cells (compound alone, DRC 4.5 nM to 10 µM) was “decrease of satellite cell pool which is only seen at high concentration”. Besides, the satellite cell population entry with Pax7 positive cells (setting [7]) and in the assay on Pax7 positive cells (setting [8]) was “the decrease of satellite cell pool which is only seen at high concentration of treatment with compound bw alone is slightly diminished” each time.

In assay [1] (setting [3]), `CC(C)(C)c1cc(NC(=O)Nc2ccc(Oc3ccnc4[nH]c(=O)cnc34)cc2F)sn1` [(q), 1-(3-(tert-butyl)isothiazol-5-yl)-3-(2-fluoro-4-((3-oxo-3,4-dihydropyrido[2,3-b]pyrazin-8-yl)oxy)phenyl)urea] yielded an Emax of 50 to 75%. This molecule also had a concentration giving a half-maximal response (EC50) in assay [1] (setting [4]) of 1000 to 5000 nM. Moreover, the total myotube surface result in assay [2] (setting [5]) and in assay [2] (setting [6]) was “strongly increased” each time. Further, the improvement of potency stood at 1.4 fold in assay [2] (setting [7]) and 5 fold in assay [2] (setting [8]). Further, the satellite cell population entry in the assay with Pax7 positive cells (setting [7]) and with Pax7 positive cells (setting [8]) was “maintenance of the satellite cells in all conditions” each time.

Turning to `C[C@]12C=CC(=O)C=C1CC[C@@H]1[C@@H]2[C@@H](O)C[C@@]2(C)[C@H]1CC[C@]2(O)C(=O)CO` [Prednisolone, reference compound], the EC50 in assay [2] is ≤ 170 nM. Besides, the “drop of satellite cells content” value in the assay on Pax7 positive cells is “about 50%”. Further, the “loss of Pax7 positive cells” value in the assay on Pax7 positive cells (compound alone) is ~50%.
